Results on two compounds are retold here after PMC10415282, “High resolution cryo-EM and crystallographic snapshots of the actinobacterial two-in-one 2-oxoglutarate dehydrogenase” (Nature Communications, 2023).

Assay [1] has as its target T1, MsKGD-GarA complex (Mycolicibacterium smegmatis, UniProt A0R2B1).
T1 construct: gene kgd; with Glycogen accumulation regulator GarA
The assay can be described thus: crystal structure, […] Å. The format is binding. Conditions: Mg2+; 2 mM ThDP, 5 mM MgCl2, pH 8.0; GarA bound, resting conformation.

Assay [2] addresses T2, OdhA (Corynebacterium glutamicum, UniProt Q8NRC3).
T2 construct: full length residues 1-1221, E. coli BL21(DE3), N-terminal His6-TEV tag cleaved for cryo-EM (OdhA-His6 kept for SPR); homohexamer, ~800 kDa
As to the kind of experiment: cryo-EM structure, […] Å. It counts as binding. To be noted: E2o active site; ThDP-Mg and acetyl-CoA also bound.

In the case of `Cc1ncc(C[n+]2csc(CCOP(=O)(O)OP(=O)(O)O)c2C)c(N)n1` [ThDP], the “crystal structure, 4.6 Å” value in assay [1] was “The E1o dimers containing the Mg-ThDP compose the blades”.

For the compound `CC(C)(COP(=O)(O)OP(=O)(O)OC[C@H]1O[C@@H](n2cnc3c(N)ncnc32)[C@H](O)[C@@H]1OP(=O)(O)O)[C@@H](O)C(=O)NCCC(=O)NCCSC(=O)CCC(=O)O` [succinyl-CoA], the “cryo-EM structure, 2.1 Å” value in assay [2] is “succinyl-CoA binds to the same domain with its 2-phosphoadenosine moiety superimposable”.
